Data as given in a melting point compilation (Tetko et al.; mined from patent text by program, amines drawn as free bases though some values may be those of a salt).

| Structure (SMILES) | melting point |
| --- | --- |
| O=Cc1cccc(Cl)n1 | 136 °C |
| COc1cc2c(cc1OC)C(C)=[N+]([O-])CN2 | 161 to 163 °C |
| CSC(=O)C(=O)c1cccc(NC=O)n1 | 163 to 165 °C |
| CCNC(=O)c1nnc(S)o1 | 210 °C |
| Oc1cncc2sccc12 | 206 °C |
| CC(C)=CC(=O)N[C@H]1CC[C@H](CCN2CCN(c3nccc4c3OCC4)CC2)CC1 | 184 °C |
| CCCCCCCCCCCCCCCCC(C(=O)NC1=NN(c2ccccc2)C(=O)C1C)S(=O)(=O)O (centres undefined) | 240 °C |
| CCCCCCCCC(=O)OCC(O)COC(=O)CCCCCCCC | 30 to 31 °C |
| C=CCc1c(OCC(O)CSCCO)ccc(C(C)=O)c1O (centres undefined) | 54 to 56 °C |
| N#Cc1ccc2sc3c(c2c1)CC(C=O)CC3 (centres undefined) | 172 to 173 °C |
| CCC(=O)NCCC1CCc2ccc3nc(C)oc3c21 (centres undefined) | 111 to 113 °C |
| O=C(O)C1CC(Cl)=C(c2ccccc2)CC1C(=O)O (centres undefined) | 82 to 90 °C |
| O=S(=O)(c1ccc2c(c1)OC(c1ccccc1)(c1ccccc1)O2)N1CCCCC1 | 163 to 164 °C |
| CCOCc1c2c(n(Cc3ccccc3)c1-c1ccccc1)C(C)CN(Cc1ccccc1)C2 (centres undefined) | 96 to 98 °C |
| Clc1nc[nH]c2ncc(I)c1-2 | 195 to 196 °C |
| C=CCN(CC=C)C(=O)C1CC(C)(C)NC(C)(C)C1 | 64 to 67 °C |
| Cc1nc2n(C)ccn2c(=O)c1CCN1CCC(Nc2nc3ccccc3[nH]2)CC1 | 230 °C |
| O=C(NCC1C2(CCCC1(c1ccccc1)c1ccccc1)OCCO2)c1ccccc1 (racemic) | 162 °C |
| O=Cc1ccc(OCc2ccccc2)c(OC2CCCC2)c1 | 55 to 56 °C |
| Nc1nnc(CCC2CCCCC2)s1 | 253 to 255 °C |
| Cc1cc(C)cc(Sc2[nH]c(C)nc2CO)c1 | 199 to 201 °C |
| CC(C)C[C@H](NC(=O)OC1CCCCC1)C(=O)N[C@@H](Cc1ccccc1)C(=O)CSCc1ccco1 | 102 to 103 °C |
| CC(C)C[C@@H](C#N)NC(=O)[C@@H]1CCCC[C@@H]1NC(=O)c1ccc(-n2cncn2)cc1 | 156 to 159 °C |
| COC(=O)C1(C)CCCC2(C)c3c(OC)cc(C(C)C)c(OC)c3CCC12 (centres undefined) | 133 to 135 °C |

| Structure (SMILES) | melting point |
| --- | --- |
| CN(C)S(=O)(=O)NC(c1ccccc1)P(=O)(Oc1ccccc1)Oc1ccccc1 (centres undefined) | 193 to 196 °C |
| COC(=O)CCCCCSC1=CCCC1=O | 45 to 46.5 °C |
| CCOP(=O)(CCOc1ccc(C(=O)O)cc1)OCC | 86 to 88 °C |
| CCOc1ccc(OCCN2CCN(c3cc(Cl)nnc3Cl)CC2)cc1 | 93 to 95 °C |
| CCOC(=O)c1cccc(C2(C(N)=O)C(=O)N(CC(=O)N(c3ccccc3)C(C)C)c3ccccc3N(c3ccccc3)C2=O)c1 (centres undefined) | 187 to 188 °C |
| Cc1csc(C2CCN(CCCC(O)c3ccc(F)cc3)CC2)n1 (centres undefined) | 98 to 99 °C |
| CCCCc1cn(CCCC)c(=O)n1Cc1ccc(-c2ccccc2-c2nnn[nH]2)nc1 | 170 to 171 °C |
| COc1ccccc1-c1ccc(C(=O)N2Cc3ccc(C(=O)NCc4cccn4C)n3Cc3ccccc32)cc1 | 148 to 150 °C |
| CCCC(=O)Oc1ccc2sc(S(N)(=O)=O)nc2c1 | 132 °C |
| NC(=O)c1c(Cl)cc(Cl)c(OCC(=O)O)c1Cl | 261 to 262 °C |
| Cc1nc2cc(Cl)c(Cl)cc2n1C1CC(CO)C(O)C1O (centres undefined) | 198 to 200 °C |
| CCCCCC1=CN(N)C2=NC(O)N(CCCNC(C)=O)C2=C1 (centres undefined) | 189 to 191 °C |
| CCc1cccc2c1CCN([C@@H]1CN3CCC1CC3)C2=O | > 290 °C |
| Clc1ccc(-c2nc(CCCCCCc3nnn[nH]3)oc2-c2ccc(Cl)cc2)cc1 | 148 °C |
| Cc1cc(C(N)=O)ncc1C(c1c(F)ccc(F)c1F)S(=O)(=O)CC1CC1 (centres undefined) | 222 to 223 °C |
| CCN(CC)CC(O)CNC(=O)Cn1ncc(-c2ccccc2)c1-c1ccccc1 (centres undefined) | 70 to 72 °C |
| Cn1ccnc1Sc1ccc(I)cc1Cl | 99 to 101 °C |
| CCCCSc1nc2c(cc1C#N)C(=O)CC(C)(C)C2 | 50 to 52 °C |
| CCCCn1c(=O)c2nn(S(=O)(=O)Cc3ccccc3)cc2n(CCCC)c1=O | 90 to 93 °C |
| NC(=O)CN1C(=O)C[C@@H]2CCCC[C@@H]21 (relative stereo) | 145 to 146 °C |
| CCOC(=O)C=CC(=O)c1ccc(Oc2ccccc2)cc1 | 50 to 53.5 °C |
| CCOC(=S)CC/C(C)=C/Cc1c(OC)c(C)c2c(c1OC(N)=O)C(=O)OC2 | 145 to 147 °C |
| Clc1ccc(C2Cc3cnc(Nc4ccc(CCN5CCCCC5)cc4)nc3-c3ccccc32)cc1Cl (centres undefined) | 157 to 158 °C |

Other lines, results leading:

| melting point | Structure (SMILES) |
| --- | --- |
| 223 to 224 °C | CC(=O)NCc1cc(-c2ccccc2)c2c(n1)OCCN(Cc1cc(C(F)(F)F)cc(C(F)(F)F)c1)C2=O |
| 230 to 236 °C | COC(=O)Nc1cn2cc(Sc3ccccn3)ccc2n1 |
| 236 to 238 °C | O=C(Nc1ccc(C(CC2CCCC2)C(=O)Nc2nccs2)cc1)c1ccc([N+](=O)[O-])cc1 (centres undefined) |
| 140 to 145 °C | CCOc1c(Nc2cccnc2)c(=O)c1=O |
| 160 to 170 °C | O=C(O)c1ccc2c(-c3ccccc3)coc2c1 |
| 139 to 140 °C | O=S(=O)(Nc1ccc2c(OCc3ccc(-c4ccc(F)cc4)cc3)cccc2c1)C(F)(F)F |
| 157 °C | CC(C)(C)c1cc(C(c2cccc([N+](=O)[O-])c2)N2CCCCC2)cc(C(C)(C)C)c1O (centres undefined) |
| 199 to 204 °C | O=C(O)CCc1cc2cc(F)c(Cl)cc2n1S(=O)(=O)c1ccccc1 |
| 79 to 81 °C | COC(=O)/C(C)=C/COc1cccc(O)c1 |
| 88 to 102 °C | N#CC(C=O)c1ccc(NS(=O)(=O)c2cccc(Cl)c2Cl)cc1 (centres undefined) |
| 156 to 157 °C | CC(C)(C)OC(=O)N1CCC(O)(CSC2=CC(=O)C(=O)c3ccccc32)CC1 |
| 195 °C | Cn1c(CC(=O)NO)ccc1C(=O)c1ccc(Cl)cc1 |
| 147 to 148 °C | FC(F)(F)c1cccc(CSc2nnc(-c3ccn4ncnc4c3)o2)c1 |
| 203 °C | Cc1ccc(C(=O)Nc2ccc(C#N)cc2)cc1Nc1ncc(-c2cccnc2)o1 |
| 182 to 184 °C | Cc1ccc(-c2cc(N3CCCC3)c(C#N)c3c2-c2ccccc2C3)cc1 |
| 145 to 149 °C | CCOC(=O)c1ncn2c1C(C)(C)Nc1ccccc1-2 |
| 133 °C | CCCc1cc(C(=O)OC)ccc1OCC(=O)CNc1cnn(C(C)C)c(=O)c1Cl |
| 193 to 195 °C | CC(C)c1ccc(-c2ncc(-c3cccc(C(=O)O)c3)o2)cc1 |
| 188 to 189 °C | COc1ccc(C(=O)Nc2ccccc2)cc1NC(=S)Nc1cccc([N+](=O)[O-])c1 |
| 189 °C | COc1cc(N)c([N+](=O)[O-])cc1I |
| 130 °C | O=C(Nc1cccc(C(=NO)c2ccccc2)c1)c1ccn2c1CSC2c1cccnc1 (single isomer, unassigned; (+)) |
| 149 to 151 °C | CC1(C)CON(Cc2ccc(NC(=O)C3=C(C(=O)O)CCCC3)cc2Br)C1=O |
| > 260 °C | Cn1cc(C(=O)O)c(=O)c2c3cc(N4CCN(c5ccc(F)c(Cl)c5)CC4)c(Cl)c(F)c3ncc21 |
| 154 to 155 °C | CC(C)(CNc1ccnc2cc(Cl)ccc12)NCc1c(Cl)cccc1Cl |
| 83 to 85 °C | CCN(CC)CCNC(=O)c1c2ccccc2nc2ccc(I)cc12 |
| 55 to 60 °C | CCOC(=O)CC(=O)c1cc(C#N)ccc1F |

| melting point | Structure (SMILES) |
| --- | --- |
| 192 °C | CS(=O)(=O)COC(=O)c1oc(-c2ccccc2)cc(=O)c1Br |
| 134 to 136 °C | C=CCc1c(O)c(Cl)cc(F)c1N1C(=O)c2ccccc2C1=O |
| 118 to 120 °C | COC(=O)C(C)(C)OCc1cc2cc(C(F)(F)F)ccc2n1S(=O)(=O)c1cccc2nc(C)sc12 |
| 144 to 146 °C | O=[N+]([O-])c1cc([N+](=O)[O-])c(Nc2cccc3c2OC(F)(F)O3)c(C(F)(F)F)c1 |
| 90 to 104 °C | CN(C)NC(=O)c1cc(S(C)(=O)=O)c(Cl)cc1NCc1ccco1 |
| 188 to 190 °C | CC(C)(C)NC(=O)CC(Cc1cccc2ccccc12)C(=O)O (centres undefined) |
| 94 to 96 °C | Fc1cc2c(cc1Cl)C(Cl)Cc1ccccc1S2 (centres undefined) |
| 88 to 92 °C | CC1=CC(C)(C)OC(c2nsc3ccc(-n4c(=O)cc(C(F)(F)F)n(C)c4=O)cc23)C1 (centres undefined) |
| 194 to 195 °C | Cc1nc(-c2ccc(O)cc2)sc1C |
| 128 to 130 °C | CCOc1nn(-c2ccc(C(F)(F)F)cn2)cc1CCOc1cccc(CC(=O)O)c1 |
| 201 to 202 °C | CC(Oc1ccc2c(=O)c(-c3ccccc3)coc2c1)C(=O)O (centres undefined) |
| 183 °C | O=C1CS[C@@H]2[C@H](NC(=O)Cc3ccccc3)C(=O)N2C1 |
| 123 to 124 °C | CCN(CC)C(=O)c1ccc2c(c1)C(=C(Cl)Cl)OC(C(Cl)(Cl)Cl)O2 (centres undefined) |
| 223 to 225 °C | CC(=O)NCc1cccc(Nc2nccc(-c3sc(-c4cccs4)nc3C)n2)c1 |
| 179 °C | Cc1ccc(-c2cc(C(O)/C=C/c3ccc(C(=O)O)cc3)cc3c2C(C)(C)CCC3(C)C)cc1 (centres undefined) |
| 210 to 211 °C | Oc1ccc(-c2c3ccccc3c(C(F)(F)F)c3sc4ccccc4c23)cc1 |
| 65 to 70 °C | C#CCC1CCC(=O)C(C(=O)c2ccc(S(C)(=O)=O)cc2[N+](=O)[O-])C1=O (centres undefined) |
| 190 to 192 °C | CCOCCN(C)c1ccc(-c2ccc3c(c2)C=C(C(=O)Nc2ccc(CN(C)C4CCOCC4)cc2)CCS3(=O)=O)cc1 |
| 181 to 182 °C | O=C1c2c(O)cccc2C(c2cccs2)c2cccc(O)c21 |
| 58 to 60 °C | COC(=O)c1ccsc1COc1ccc(CCCCO)cc1 |
| 64 °C | CCN(CC)C(=O)Oc1cc(-c2ccccc2)c2ccccc2n1 |
| 98 to 99 °C | NNc1cnc(-c2ccccc2)cn1 |
| 140 °C | CC(OCc1cc2nc(C(F)(F)F)ccc2n1S(=O)(=O)c1ccccc1)C(=O)O (centres undefined) |
| 275 to 276 °C | CC(C)(C)C1=CC(=Nc2cc(C(=O)O)ccc2O)C=C(C(C)(C)C)C1=O |
| 201 to 202 °C | CCc1c(C(=O)c2cc(C)cc(C)c2)n(CC=CC(=O)OC)c(=O)[nH]c1=O |
| 85 to 87 °C | C=Cc1ccc(S(=O)(=O)On2nnc3ccc(C=C)cc32)cc1 |
